Literature values as cited in article PMC4728427, “Mechanism of allosteric activation of TMEM16A/ANO1 channels by a commonly used chloride channel blocker” (British Journal of Pharmacology, 2016).
pEC50, pIC50: −log10 of the molar value. Read-outs that look alike come from different tables or passages of the source.

Legend:
[1] = system: CaCC currents (TMEM16A); parameters: method as in Namkung et al., 2011b; details: ref Namkung et al., 2011b; read-out: EC50 activation of CaCC currents; cited from earlier work
[2] = system: ClC‐2; parameters: method as in Oh et al., 2013; details: ref Oh et al., 2013; cited from earlier work
[3] = system: bestrophin 1; parameters: method as in Oh et al., 2013; details: ref Oh et al., 2013; cited from earlier work
[4] = system: CFTR; parameters: method as in Oh et al., 2013; details: ref Oh et al., 2013; cited from earlier work
[5] = system: TMEM16A; parameters: method as in Oh et al., 2013; details: ref Oh et al., 2013; read-out: IC50 TMEM16A inhibition; cited from earlier work
[6] = system: head and neck squamous cell carcinoma; parameters: method as in Duvvuri et al., 2012; details: ref Duvvuri et al., 2012; cited from earlier work
[7] = system: TMEM16A; parameters: method as in Namkung et al., 2011a; details: ref Namkung et al., 2011a; read-out: IC50 TMEM16A inhibition; cited from earlier work

In the case of `COCCN(C(=O)c1cc(OC)c(OC)c(OC)c1)c1nc(-c2ccccc2)cs1` [Eact], the pEC50 [1] is given as 5.22 to 5.52.

For `COc1cc(Nc2ccc([N+](=O)[O-])cc2C(=O)O)cc2ccccc12` [MONNA], the “interaction with ClC‐2” value [2] is given as “does not interact”, the “interaction with bestrophin 1” value [3] is given as “does not interact” and the “interaction with CFTR” value [4] is given as “does not interact”. For the same compound, the pIC50 [5] was about 6.00.

For `CCc1c(C)nc(SCC(=O)Nc2nc(-c3ccc(OC)cc3)cs2)[nH]c1=O` [T16inh‐A01], the tumour growth [6] is listed as “reduced tumour growth” and the pIC50 [7] is listed as about 6.00.
